In patent US20230348442A1, “GALECTIN-3 INHIBITING 2-HYDROXYCYCLOALKANE-1-CARBAMOYL DERIVATIVES” (Idorsia Pharmaceuticals Ltd, priority 2020, published 2023):

target: human Gal-3 (hGal-3) (Homo sapiens (Human), UniProt P17931); assay: competitive binding assay: binding of biotinylated hGal-3 to microplate-adsorbed asialofetuin (ASF), spectrophotometric; settings: Activity on hGal-3; mean values of several measurements
Procedure, shortened: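 For hGal-1, a variant with all six cysteines replaced by serines is preferred. Either galectin, biotinylated at 300-1000 ng/mL, competes with compound for microplate-bound ASF over 3 h at 4° C; peroxidase/ABTS detection gives IC50, averaged.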

human Gal-3 (hGal-3), sequence (P17931 whole entry): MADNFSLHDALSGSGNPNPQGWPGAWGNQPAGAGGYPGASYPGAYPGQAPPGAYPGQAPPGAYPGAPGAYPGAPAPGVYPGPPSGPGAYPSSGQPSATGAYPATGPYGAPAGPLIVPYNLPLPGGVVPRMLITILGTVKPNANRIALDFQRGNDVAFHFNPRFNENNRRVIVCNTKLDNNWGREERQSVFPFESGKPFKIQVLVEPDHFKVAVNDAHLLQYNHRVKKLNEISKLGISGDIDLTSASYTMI

SMILES | IC50
CO[C@@H]1[C@@H](n2cc(-c3cc(F)c(Br)c(F)c3)nn2)[C@@H](O)[C@@H](CO)O[C@H]1C(=O)N(c1cc(Br)cc(C#N)c1)[C@H]1CC[C@@H]1O [Example 2.6.5, (2R,3R,4S,5R,6R)-4-(4-(4-bromo-3,5-difluorophenyl)-1H-1,2,3-triazol-1-yl)-N-(3-bromo-5-cyanophenyl)-5-hydroxy-N-((1S,2S)-2-hydroxycyclobutyl)-6-(hydroxymethyl)-3-methoxytetrahydro-2H-pyran-2-carboxamide] | 70.9 nM
CO[C@@H]1[C@@H](n2cc(-c3cccc(F)c3)nn2)[C@@H](O)[C@@H](CO)O[C@H]1C(=O)N(c1cc(Cl)cc(C#N)c1)[C@H]1CCC[C@@H]1O [Example 1.15.4, (2R,3R,4S,5R,6R)-N-(3-chloro-5-cyanophenyl)-4-(4-(3-fluorophenyl)-1H-1,2,3-triazol-1-yl)-5-hydroxy-N-((1S,2S)-2-hydroxycyclopentyl)-6-(hydroxymethyl)-3-methoxytetrahydro-2H-pyran-2-carboxamide] | 54 nM
CO[C@@H]1[C@@H](n2cc(-c3cc(F)c(Cl)c(F)c3)nn2)[C@@H](O)[C@@H](CO)O[C@H]1C(=O)N(c1cc(Cl)cc(C#N)c1)[C@@H]1CCC[C@H]1O [Example 1.5.4R, (2R,3R,4S,5R,6R)-4-(4-(4-chloro-3,5-difluorophenyl)-1H-1,2,3-triazol-1-yl)-N-(3-chloro-5-cyanophenyl)-5-hydroxy-N-((1R,2R)-2-hydroxycyclopentyl)-6-(hydroxymethyl)-3-methoxytetrahydro-2H-pyran-2-carboxamide] | 153 nM
COc1cc(C#N)cc(N(C(=O)[C@@H]2O[C@H](CO)[C@H](O)[C@H](n3cc(-c4cc(F)cc(Br)c4)nn3)[C@H]2OC)[C@H]2CCC[C@@H]2O)c1 [Example 1.10.9, (2R,3R,4S,5R,6R)-4-(4-(3-bromo-5-fluorophenyl)-1H-1,2,3-triazol-1-yl)-N-(3-cyano-5-methoxyphenyl)-5-hydroxy-N-((1S,2S)-2-hydroxycyclopentyl)-6-(hydroxymethyl)-3-methoxytetrahydro-2H-pyran-2-carboxamide] | 174 nM
CO[C@@H]1[C@@H](n2cc(-c3cc(F)c(F)c(F)c3)nn2)[C@@H](O)[C@@H](CO)O[C@H]1C(=O)N(c1cc(Br)cc(Br)c1)[C@@H]1CCC[C@H]1O [Example 1.1.11R, (2R,3R,4S,5R,6R)-N-(3,5-dibromophenyl)-5-hydroxy-N-((1R,2R)-2-hydroxycyclopentyl)-6-(hydroxymethyl)-3-methoxy-4-(4-(3,4,5-trifluorophenyl)-1H-1,2,3-triazol-1-yl)tetrahydro-2H-pyran-2-carboxamide] | 390 nM
CO[C@@H]1[C@@H](n2cc(-c3ccc(Cl)c(Cl)c3)nn2)[C@@H](O)[C@@H](CO)O[C@H]1C(=O)N(c1cc(Cl)cc(C#N)c1)[C@H]1CCC[C@@H]1O [Example 1.8.4, (2R,3R,4S,5R,6R)-N-(3-chloro-5-cyanophenyl)-4-(4-(3,4-dichlorophenyl)-1H-1,2,3-triazol-1-yl)-5-hydroxy-N-((1S,2S)-2-hydroxycyclopentyl)-6-(hydroxymethyl)-3-methoxytetrahydro-2H-pyran-2-carboxamide] | 75.9 nM
CO[C@@H]1[C@@H](n2cc(-c3ccc(Br)cc3)nn2)[C@@H](O)[C@@H](CO)O[C@H]1C(=O)N(c1cc(Cl)cc(C#N)c1)[C@@H]1CCC[C@H]1O [Example 1.19.4R, (2R,3R,4S,5R,6R)-4-(4-(4-bromophenyl)-1H-1,2,3-triazol-1-yl)-N-(3-chloro-5-cyanophenyl)-5-hydroxy-N-((1R,2R)-2-hydroxycyclopentyl)-6-(hydroxymethyl)-3-methoxytetrahydro-2H-pyran-2-carboxamide] | 312 nM
COc1cc(-c2cn([C@H]3[C@@H](O)[C@@H](CO)O[C@@H](C(=O)N(c4cc(Cl)cc(Cl)c4)[C@@H]4CC[C@H]4O)[C@@H]3OC)nn2)cc(F)c1F [Example 2.3.2R, (2R,3R,4S,5R,6R)-N-(3,5-dichlorophenyl)-4-(4-(3,4-difluoro-5-methoxyphenyl)-1H-1,2,3-triazol-1-yl)-5-hydroxy-N-((1R,2R)-2-hydroxycyclobutyl)-6-(hydroxymethyl)-3-methoxytetrahydro-2H-pyran-2-carboxamide] | 190 nM
COc1cc(-c2cn([C@H]3[C@@H](O)[C@@H](CO)O[C@@H](C(=O)N(c4cc(Cl)cc(Cl)c4)[C@H]4CC[C@@H]4O)[C@@H]3OC)nn2)cc(F)c1F [Example 2.3.2, (2R,3R,4S,5R,6R)-N-(3,5-dichlorophenyl)-4-(4-(3,4-difluoro-5-methoxyphenyl)-1H-1,2,3-triazol-1-yl)-5-hydroxy-N-((1S,2S)-2-hydroxycyclobutyl)-6-(hydroxymethyl)-3-methoxytetrahydro-2H-pyran-2-carboxamide] | 67.8 nM
CO[C@@H]1[C@@H](n2cc(-c3ccc(Br)c(F)c3F)nn2)[C@@H](O)[C@@H](CO)O[C@H]1C(=O)N(c1cc(Br)cc(C#N)c1)[C@@H]1CC[C@H]1O [Example 2.12.5R, (2R,3R,4S,5R,6R)-4-(4-(4-bromo-2,3-difluorophenyl)-1H-1,2,3-triazol-1-yl)-N-(3-bromo-5-cyanophenyl)-5-hydroxy-N-((1R,2R)-2-hydroxycyclobutyl)-6-(hydroxymethyl)-3-methoxytetrahydro-2H-pyran-2-carboxamide] | 78.5 nM
CO[C@@H]1[C@@H](n2cc(-c3ccc(C#N)c(F)c3)nn2)[C@@H](O)[C@@H](CO)O[C@H]1C(=O)N(c1cc(C)cc(C#N)c1)[C@@H]1CCC[C@H]1O [Example 1.16.8R, (2R,3R,4S,5R,6R)-4-(4-(4-cyano-3-fluorophenyl)-1H-1,2,3-triazol-1-yl)-N-(3-cyano-5-methylphenyl)-5-hydroxy-N-((1R,2R)-2-hydroxycyclopentyl)-6-(hydroxymethyl)-3-methoxytetrahydro-2H-pyran-2-carboxamide] | 1260 nM
CO[C@@H]1[C@@H](n2cc(-c3cc(F)c(F)c(F)c3)nn2)[C@@H](O)[C@@H](CO)O[C@H]1C(=O)N(c1cc(Br)cc(Br)c1)[C@H]1CC[C@@H]1O [Example 2.1.11, (2R,3R,4S,5R,6R)-N-(3,5-dibromophenyl)-5-hydroxy-N-((1S,2S)-2-hydroxycyclobutyl)-6-(hydroxymethyl)-3-methoxy-4-(4-(3,4,5-trifluorophenyl)-1H-1,2,3-triazol-1-yl)tetrahydro-2H-pyran-2-carboxamide] | 72.5 nM
CO[C@@H]1[C@@H](n2cc(-c3cc(F)c(F)c(F)c3)nn2)[C@@H](O)[C@@H](CO)O[C@H]1C(=O)N(c1cc(C)cc(Cl)c1)[C@@H]1CC[C@H]1O [Example 2.1.3R, (2R,3R,4S,5R,6R)-N-(3-chloro-5-methylphenyl)-5-hydroxy-N-((1R,2R)-2-hydroxycyclobutyl)-6-(hydroxymethyl)-3-methoxy-4-(4-(3,4,5-trifluorophenyl)-1H-1,2,3-triazol-1-yl)tetrahydro-2H-pyran-2-carboxamide] | 258 nM

Compounds with a lower IC50, results first:

IC50 | SMILES
44.8 nM | CO[C@@H]1[C@@H](n2cc(-c3cc(F)c(C)c(F)c3)nn2)[C@@H](O)[C@@H](CO)O[C@H]1C(=O)N(c1cc(Cl)cc(Cl)c1)[C@H]1CCC[C@@H]1O [Example 1.4.2, (2R,3R,4S,5R,6R)-N-(3,5-dichlorophenyl)-4-(4-(3,5-difluoro-4-methylphenyl)-1H-1,2,3-triazol-1-yl)-5-hydroxy-N-((1S,2S)-2-hydroxycyclopentyl)-6-(hydroxymethyl)-3-methoxytetrahydro-2H-pyran-2-carboxamide]
40.8 nM | CO[C@@H]1[C@@H](n2cc(-c3ccc(Cl)c(Cl)c3)nn2)[C@@H](O)[C@@H](CO)O[C@H]1C(=O)N(c1cc(Br)cc(C#N)c1)[C@H]1CCC[C@@H]1O [Example 1.8.5, (2R,3R,4S,5R,6R)-N-(3-bromo-5-cyanophenyl)-4-(4-(3,4-dichlorophenyl)-1H-1,2,3-triazol-1-yl)-5-hydroxy-N-((1S,2S)-2-hydroxycyclopentyl)-6-(hydroxymethyl)-3-methoxytetrahydro-2H-pyran-2-carboxamide]
23 nM | CO[C@@H]1[C@@H](n2cc(-c3cc(F)c(F)c(F)c3)nn2)[C@@H](O)[C@@H](CO)O[C@H]1C(=O)N(c1cc(Br)cc(C#N)c1)[C@H]1CCC[C@@H]1O [Example 1.1.5, (2R,3R,4S,5R,6R)-N-(3-bromo-5-cyanophenyl)-5-hydroxy-N-((1S,2S)-2-hydroxycyclopentyl)-6-(hydroxymethyl)-3-methoxy-4-(4-(3,4,5-trifluorophenyl)-1H-1,2,3-triazol-1-yl)tetrahydro-2H-pyran-2-carboxamide]
22.9 nM | CO[C@@H]1[C@@H](n2cc(-c3cc(F)cc(Cl)c3)nn2)[C@@H](O)[C@@H](CO)O[C@H]1C(=O)N(c1cc(Br)cc(C#N)c1)[C@H]1CCC[C@@H]1O [Example 1.9.5, (2R,3R,4S,5R,6R)-N-(3-bromo-5-cyanophenyl)-4-(4-(3-chloro-5-fluorophenyl)-1H-1,2,3-triazol-1-yl)-5-hydroxy-N-((1S,2S)-2-hydroxycyclopentyl)-6-(hydroxymethyl)-3-methoxytetrahydro-2H-pyran-2-carboxamide]
21.2 nM | CO[C@@H]1[C@@H](n2cc(-c3ccc(Br)c(F)c3F)nn2)[C@@H](O)[C@@H](CO)O[C@H]1C(=O)N(c1cc(F)cc(C#N)c1)[C@H]1CCC[C@@H]1O [Example 1.12.7, (2R,3R,4S,5R,6R)-4-(4-(4-bromo-2,3-difluorophenyl)-1H-1,2,3-triazol-1-yl)-N-(3-cyano-5-fluorophenyl)-5-hydroxy-N-((1S,2S)-2-hydroxycyclopentyl)-6-(hydroxymethyl)-3-methoxytetrahydro-2H-pyran-2-carboxamide]
17.1 nM | CO[C@@H]1[C@@H](n2cc(-c3ccc(C)c(F)c3)nn2)[C@@H](O)[C@@H](CO)O[C@H]1C(=O)N(c1cc(Br)cc(C#N)c1)[C@H]1CCC[C@@H]1O [Example 1.13.5, (2R,3R,4S,5R,6R)—N-(3-bromo-5-cyanophenyl)-4-(4-(3-fluoro-4-methylphenyl)-1H-1,2,3-triazol-1-yl)-5-hydroxy-N-((1S,2S)-2-hydroxycyclopentyl)-6-(hydroxymethyl)-3-methoxytetrahydro-2H-pyran-2-carboxamide]
